{"source": "ChEMBL document CHEMBL3526112", "about": "“Brain uptake of the drug of abuse γ-hydroxybutyric acid in rats” (Drug Metab Dispos, 2012)", "key": {"[1]": {"assay": "Tmax in Sprague-Dawley rat plasma at 600 mg/kg, iv", "type": "ADME, organism-based", "design": "dose 600 mg/kg, route intravenous"}, "[2]": {"assay": "Drug uptake in human hCMEC/D3 cells at 58 nM at pH 7.4 after 15 to 30 seconds by liquid scintillation counting", "type": "ADME, cell-based", "conditions": "hcmec/d3, pH 7.4, 0.058 µM; call rule not given here"}, "[3]": {"assay": "Tmax in Sprague-Dawley rat plasma at 400 mg/kg, iv", "type": "ADME, organism-based", "design": "dose 400 mg/kg, route intravenous"}, "Brain [4]": {"test_system": "Brain", "assay": "AUC in Sprague-Dawley rat extracellular fluid of brain at 800 mg/kg, iv", "type": "ADME, organism-based", "design": "dose 800 mg/kg, route intravenous", "conditions": "in vivo"}, "[5]": {"assay": "Tmax in Sprague-Dawley rat extracellular fluid of brain at 600 mg/kg, iv", "type": "ADME, organism-based", "design": "dose 600 mg/kg, route intravenous"}, "[6]": {"assay": "Tmax in Sprague-Dawley rat plasma at 800 mg/kg, iv", "type": "ADME, organism-based", "design": "dose 800 mg/kg, route intravenous"}, "[7]": {"assay": "Drug uptake in rat RBE4 cells at 10 mM at pH 6.5 up to 10 mins by Michaelis-Menten analysis relative to at pH 7.4", "type": "ADME, cell-based", "conditions": "rbe4, pH 6.5, 10 min, 10000 µM"}, "[8]": {"assay": "Tmax in Sprague-Dawley rat extracellular fluid of brain at 400 mg/kg, iv", "type": "ADME, organism-based", "design": "dose 400 mg/kg, route intravenous"}, "Plasma [9]": {"test_system": "Plasma", "assay": "AUC in Sprague-Dawley rat plasma at 800 mg/kg, iv", "type": "ADME, organism-based", "design": "dose 800 mg/kg, route intravenous", "conditions": "in vivo"}, "[10]": {"assay": "Drug uptake in rat RBE4 cells at pH 7.4 up to 10 mins by Michaelis-Menten analysis", "type": "ADME, cell-based"}, "[11]": {"assay": "Renal clearance in Sprague-Dawley rat at 600 mg/kg, iv", "type": "ADME, organism-based, Kidney", "design": "dose 600 mg/kg, route intravenous", "conditions": "in vivo"}, "Rattus norvegicus [12]": {"test_system": "Rattus norvegicus", "assay": "Increase of sleep time in Sprague-Dawley rat at 400 mg/kg, iv", "type": "functional"}, "[13]": {"assay": "Cmax in Sprague-Dawley rat extracellular fluid of brain at 400 mg/kg, iv", "type": "ADME, organism-based", "design": "dose 400 mg/kg, route intravenous", "conditions": "in vivo"}, "Rattus norvegicus [14]": {"test_system": "Rattus norvegicus", "assay": "Increase of sleep time in Sprague-Dawley rat at 800 mg/kg, iv", "type": "functional"}, "[15]": {"assay": "Ratio of extracellular fluid of brain AUC to plasma AUC in Sprague-Dawley rat at 800 mg/kg, iv", "type": "ADME, organism-based", "design": "dose 800 mg/kg, route intravenous", "conditions": "read-out: Ratio AUC"}, "[16]": {"assay": "Renal clearance in Sprague-Dawley rat at 800 mg/kg, iv", "type": "ADME, organism-based, Kidney", "design": "dose 800 mg/kg, route intravenous", "conditions": "in vivo"}, "[17]": {"assay": "Drug uptake in human hCMEC/D3 cells at 10 mM at pH 6.5 up to 10 mins by Michaelis-Menten analysis relative to at pH 7.4", "type": "ADME, cell-based", "conditions": "hcmec/d3, pH 6.5, 10 min, 10000 µM"}, "Plasma [18]": {"test_system": "Plasma", "assay": "AUC in Sprague-Dawley rat plasma at 600 mg/kg, iv", "type": "ADME, organism-based", "design": "dose 600 mg/kg, route intravenous", "conditions": "in vivo"}, "Rattus norvegicus [19]": {"test_system": "Rattus norvegicus", "assay": "Increase of sleep time in iv dosed Sprague-Dawley rat", "type": "functional, organism-based"}, "Brain [20]": {"test_system": "Brain", "assay": "AUC in Sprague-Dawley rat extracellular fluid of brain at 400 mg/kg, iv", "type": "ADME, organism-based", "design": "dose 400 mg/kg, route intravenous", "conditions": "in vivo"}, "Plasma [21]": {"test_system": "Plasma", "assay": "AUC in Sprague-Dawley rat plasma at 400 mg/kg, iv", "type": "ADME, organism-based", "design": "dose 400 mg/kg, route intravenous", "conditions": "in vivo"}, "[22]": {"assay": "Ratio of extracellular fluid of brain AUC to plasma AUC in Sprague-Dawley rat at 400 mg/kg, iv", "type": "ADME, organism-based", "design": "dose 400 mg/kg, route intravenous", "conditions": "read-out: Ratio AUC"}, "Plasma [23]": {"test_system": "Plasma", "assay": "Cmax in Sprague-Dawley rat plasma at 600 mg/kg, iv after 30 to 180 mins", "type": "ADME, organism-based", "design": "dose 600 mg/kg, route intravenous", "conditions": "in vivo"}, "Plasma [24]": {"test_system": "Plasma", "assay": "Cmax in Sprague-Dawley rat plasma at 400 mg/kg, iv after 30 to 180 mins", "type": "ADME, organism-based", "design": "dose 400 mg/kg, route intravenous", "conditions": "in vivo"}, "Brain [25]": {"test_system": "Brain", "assay": "AUC in Sprague-Dawley rat extracellular fluid of brain at 600 mg/kg, iv", "type": "ADME, organism-based", "design": "dose 600 mg/kg, route intravenous", "conditions": "in vivo"}, "[26]": {"assay": "Cmax in Sprague-Dawley rat extracellular fluid of brain at 800 mg/kg, iv", "type": "ADME, organism-based", "design": "dose 800 mg/kg, route intravenous", "conditions": "in vivo"}, "Plasma [27]": {"test_system": "Plasma", "assay": "Cmax in Sprague-Dawley rat plasma at 800 mg/kg, iv after 30 to 180 mins", "type": "ADME, organism-based", "design": "dose 800 mg/kg, route intravenous", "conditions": "in vivo"}, "Plasma [28]": {"test_system": "Plasma", "assay": "Cmax in Sprague-Dawley rat plasma at 400 mg/kg, iv", "type": "ADME, organism-based", "design": "dose 400 mg/kg, route intravenous", "conditions": "in vivo"}, "[29]": {"assay": "Drug uptake in human hCMEC/D3 cells at pH 7.4 up to 10 mins by Michaelis-Menten analysis", "type": "ADME, cell-based"}, "Rattus norvegicus [30]": {"test_system": "Rattus norvegicus", "assay": "Increase of sleep time in Sprague-Dawley rat at 600 mg/kg, iv", "type": "functional"}, "[31]": {"assay": "Drug recovery in Sprague-Dawley rat brain frontal cortex at 400 to 800 mg/kg, iv by microdialysis", "type": "ADME, organism-based", "design": "dose 400-800 mg/kg, route intravenous", "conditions": "in vivo"}, "[32]": {"assay": "Cmax in Sprague-Dawley rat extracellular fluid of brain at 600 mg/kg, iv", "type": "ADME, organism-based", "design": "dose 600 mg/kg, route intravenous", "conditions": "in vivo"}, "[33]": {"assay": "Ratio of extracellular fluid of brain AUC to plasma AUC in Sprague-Dawley rat at 600 mg/kg, iv", "type": "ADME, organism-based", "design": "dose 600 mg/kg, route intravenous", "conditions": "read-out: Ratio AUC"}, "[34]": {"assay": "Drug uptake in rat RBE4 cells at 58 nM at pH 7.4 after 15 to 30 seconds by liquid scintillation counting", "type": "ADME, cell-based", "conditions": "rbe4, pH 7.4, 0.058 µM"}, "[35]": {"assay": "Tmax in Sprague-Dawley rat extracellular fluid of brain at 800 mg/kg, iv", "type": "ADME, organism-based", "design": "dose 800 mg/kg, route intravenous"}, "[36]": {"assay": "Dissociation constant, pKa of the compound", "type": "physicochemical"}, "[37]": {"assay": "Renal clearance in Sprague-Dawley rat at 400 mg/kg, iv", "type": "ADME, organism-based, Kidney", "design": "dose 400 mg/kg, route intravenous", "conditions": "in vivo"}}}
{"smiles": "O=C([O-])CCCO.[Na+]", "note": "[SODIUM OXYBATE]", "values": [{"measurement": "Tmax", "setting": "[1]", "result": 5, "unit": "min"}, {"measurement": "Drug uptake", "setting": "[2]", "result": "Active"}, {"measurement": "Tmax", "setting": "[3]", "result": 5, "unit": "min"}, {"measurement": "AUC", "setting": "Brain [4]", "result": 11.2, "unit": "mg·min/mL"}, {"measurement": "Tmax", "setting": "[5]", "result": 50, "unit": "min"}, {"measurement": "Tmax", "setting": "[6]", "result": 5, "unit": "min"}, {"measurement": "Drug uptake", "setting": "[7]", "result": 126, "unit": "%"}, {"measurement": "Tmax", "setting": "[8]", "result": 50, "unit": "min"}, {"measurement": "AUC", "setting": "Plasma [9]", "result": 145, "unit": "mg·min/mL"}, {"measurement": "Km at 10 min", "setting": "[10]; RBE4 cells, pH 7.4", "result": 23.3, "unit": "mM"}, {"measurement": "Vmax", "setting": "[10]; rbe4, pH 7.4, 10 min", "result": 258, "unit": "pmol/mg/min"}, {"measurement": "CL renal", "setting": "[11]", "result": 1.41, "unit": "mL/min/kg"}, {"measurement": "Time", "setting": "Rattus norvegicus [12]", "result": 90.4, "unit": "min"}, {"measurement": "Cmax", "setting": "[13]", "result": 390, "unit": "µM"}, {"measurement": "Time", "setting": "Rattus norvegicus [14]", "result": 171, "unit": "min"}, {"measurement": "Kp", "setting": "[15]", "result": 0.07}, {"measurement": "CL renal", "setting": "[16]", "result": 2.18, "unit": "mL/min/kg"}, {"measurement": "Drug uptake", "setting": "[17]", "result": 126, "unit": "%"}, {"measurement": "AUC", "setting": "Plasma [18]", "result": 124, "unit": "mg·min/mL"}, {"measurement": "Activity", "setting": "Rattus norvegicus [19]", "result": "Dose-dependent effect"}, {"measurement": "AUC", "setting": "Brain [20]", "result": 4.9, "unit": "mg·min/mL"}, {"measurement": "AUC", "setting": "Plasma [21]", "result": 66, "unit": "mg·min/mL"}, {"measurement": "Kp", "setting": "[22]", "result": 0.079}, {"measurement": "Cmax", "setting": "Plasma [23]", "result": 2400, "unit": "µM"}, {"measurement": "Cmax", "setting": "Plasma [24]", "result": 600, "unit": "µM"}, {"measurement": "AUC", "setting": "Brain [25]", "result": 8.7, "unit": "mg·min/mL"}, {"measurement": "Cmax", "setting": "[26]", "result": 660, "unit": "µM"}, {"measurement": "Cmax", "setting": "Plasma [27]", "result": 3400, "unit": "µM"}, {"measurement": "Cmax", "setting": "Plasma [28]", "result": 8400, "unit": "µM"}, {"measurement": "Km at 10 min", "setting": "[29]; hCMEC/D3 cells, pH 7.4", "result": 18.1, "unit": "mM"}, {"measurement": "Vmax", "setting": "[29]; hcmec/d3, pH 7.4, 10 min", "result": 248, "unit": "pmol/mg/min"}, {"measurement": "Time", "setting": "Rattus norvegicus [30]", "result": 138, "unit": "min"}, {"measurement": "Drug recovery", "setting": "[31]", "result": 32.5, "unit": "%"}, {"measurement": "Cmax", "setting": "[32]", "result": 550, "unit": "µM"}, {"measurement": "Kp", "setting": "[33]", "result": 0.07}, {"measurement": "Drug uptake", "setting": "[34]", "result": "Active"}, {"measurement": "Tmax", "setting": "[35]", "result": 50, "unit": "min"}, {"measurement": "pKa", "setting": "[36]", "result": 4.72}, {"measurement": "CL renal", "setting": "[37]", "result": 1.55, "unit": "mL/min/kg"}]}
